# Results: patent US20250257361A1, “COMPOSITIONS AND METHODS FOR TREATING LIVER DISEASES WITH SIRNAS TARGETING SMYD2” (The Board of Regents of The University of Texas System, priority 2022, published 2025)
# Experiments:
# WD NASH model = tested on: WD NASH model
# Experimental: FIG. 6A. Experimental design for pre-clinical testing of AZ505 in the WD NASH model. WD was given at 8 weeks of age for a total of 2 months. AZ505 treatment started one day after WD was initiated. Vehicle (2.5% DMSO in saline) or AZ505 (10 mg/kg in saline containing 2.5% DMSO) was given to mice intraperitoneally 3 times per week. FIG. 6B. Body weight of vehicle or AZ505 treated mice before and after 2 months of WD (n=15 and 14 mice). FIGS. 6C-6D. Liver weight and liver/body weight ratios of vehicle or AZ505 treated mice after 2 months of WD (n=15 and 14). FIG. 6E. Representative liver pictures and H&E staining of liver sections for vehicle or AZ505 treated mice after 2 months of WD. FIGS. 6F-6G. Liver function analysis using plasma ALT and AST (n=15 and 14). FIGS. 6H-6I. Liver triglyceride and cholesterol analysis (n=15 and 14). FIGS. 6J-6K. Plasma triglyceride and cholesterol analysis (n=15 and 14).
# In order to determine if chemical SMYD2 inhibition could serve as orthogonal validation of the genetic findings, and to investigate the therapeutic potential of SMYD2 blockade in fatty liver disease, AZ505 was used. […] WD was fed to WT mice at 8 weeks of age, followed by treatment with vehicle control or AZ505 with a dose of 10 mg/kg (intraperitoneal injection) three times per week (FIG. 6A).
# All mice were handled in accordance with the guidelines of the Institutional Animal Care and Use Committee at UT Southwestern. All experiments were done in an age and sex controlled fashion unless otherwise noted. C57BL/6 strain background mice were used for all the experiments. LSL-tdTomato (strain #007914) and Rosa-rtTA; TetO-Cas9 mice (#029415) were obtained from The Jackson Laboratory. Mice homozygous for both Rosa-rtTA and TetO-Cas9 were used to ensure a high Cas9 expression level in the liver. Western Diet (WD) used for NASH modeling is described in (Tsuchida et al., 2018). It is composed of high fat solid food (ENVIGO #TD.120528) and high sugar water containing 23.1 g/L d-fructose (Sigma-Aldrich #F0127) and 18.9 g/L d-glucose (Sigma-Aldrich #G8270).
# Liver pieces were fixed in buffered formalin (Fisherbrand #245-685) for 24 h with gentle shaking at 4° C. and then transferred to 70% EtOH for another 24 h with shaking at 4° C. Paraffin embedding, liver sectioning (4 μm thickness), and H&E staining were performed at the UT Southwestern Tissue Management Shared Resource Core. For IHC staining, the following primary antibodies were used: Pten (CST #9559, IHC 1:200); Ki67 (Abcam #AB15580, IHC 1:200). IHC). IHC was performed as previously described (Zhu et al., 2010). TUNEL staining was performed on paraffin embedded liver sections using In Situ Cell Death Detection Kit, Fluorescein (Roche #C755B40) according to the manufacturer's protocol. QuPath software (https://qupath.github.io/) was used to quantify Ki67 and TUNEL staining.
# The supernatant after centrifugation (plasma) was analyzed for AST, ALT, cholesterol, and triglyceride using VITROS MicroSlide Technology at the UT Southwestern Metabolic Phenotyping Core. 100-150 mg of liver per sample was weighted and used for lipid extraction and quantification at the UT Southwestern Metabolic Phenotyping Core.
# SMYD2 = SMYD2 (Homo sapiens, UniProt Q9NRG4); conditions: cited from earlier work
# human SMYD2 = test: SMYD2 luciferase reporter assay (dual Renilla/Firefly) for siRNA knockdown in Cos7 cells; assay type: cell-based; conditions: psiCheck2 human Smyd2 luciferase reporter and siRNA co-transfected, 24 h, triplicates (Table 2; text says 48 hours)
# [1] = AZ505 10 mg/kg i.p. 3 times per week vs. vehicle, 2 months WD
# SMYD2, sequence (Q9NRG4 whole entry, species assumed): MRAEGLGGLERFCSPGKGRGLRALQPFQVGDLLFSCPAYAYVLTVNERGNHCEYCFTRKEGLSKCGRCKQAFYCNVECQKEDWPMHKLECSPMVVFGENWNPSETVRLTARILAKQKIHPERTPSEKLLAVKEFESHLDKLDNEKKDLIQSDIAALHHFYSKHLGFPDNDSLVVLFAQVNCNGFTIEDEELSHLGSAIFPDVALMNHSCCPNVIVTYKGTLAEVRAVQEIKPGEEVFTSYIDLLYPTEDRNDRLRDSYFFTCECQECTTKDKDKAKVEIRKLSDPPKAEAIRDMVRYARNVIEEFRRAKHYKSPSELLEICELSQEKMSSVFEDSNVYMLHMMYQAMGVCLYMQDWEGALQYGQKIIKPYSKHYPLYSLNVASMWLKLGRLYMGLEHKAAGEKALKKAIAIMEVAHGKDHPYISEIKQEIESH
Compound,% mRNA remaining (compared to Ctrl siRNA) (human SMYD2),further results
O=C1COc2c(CCNCCN(C(=O)CCNCCc3ccc(Cl)c(Cl)c3)C3CCCCC3)ccc(O)c2N1 [AZ505],,"body weight (WD NASH model; [1]): significant reductions; liver appearance (WD NASH model; [1]): Smaller, less pale livers; liver cholesterol (WD NASH model; [1]): modest increase; liver triglycerides (WD NASH model; [1]): significant decrease; liver weight (WD NASH model; [1]): significant reductions; liver/body weight ratios (WD NASH model; [1]): significant reductions; plasma lipids (triglyceride and cholesterol) (WD NASH model; [1]): modest increase; steatosis (liver histology, H&E) (WD NASH model; [1]): dramatically decreased steatosis; transaminitis (plasma ALT and AST) (WD NASH model; [1]): improved; fatty liver disease (overall effect) (WD NASH model; WD NASH model, AZ505 10 mg/kg i.p. 3 times per week, 2 months): ameliorates; tolerability of dose (WD NASH model; mouse, in vivo): well tolerated; IC50 (SMYD2; SMYD2): 120 nM; selectivity for SMYD2 (SMYD2): > 600 fold"
"SMYD2 310: siRNA to human SMYD2; sense GGAGACUGUAAGACUAACAUU (SEQ 63), antisense UGUUAGUCUUACAGUCUCCUU (SEQ 120) (listed as RNA, chemistry not given here)",24.0%,
"SMYD2 416-438: siRNA to human SMYD2; sense GAUAAGUUAGACAAUGAGAAG (SEQ 73), antisense UCUCAUUGUCUAACUUAUCCA (SEQ 130) (listed as RNA, chemistry not given here)",28.5%,
"SMYD2 493: siRNA to human SMYD2; sense CGGAUUCCCUGACAAUGAUUU (SEQ 66), antisense AUCAUUGUCAGGGAAUCCGUU (SEQ 123) (listed as RNA, chemistry not given here)",20.0%,
"SMYD2 675: siRNA to human SMYD2; sense GAGCUGUACAGGAAAUCAAUU (SEQ 64), antisense UUGAUUUCCUGUACAGCUCUU (SEQ 121) (listed as RNA, chemistry not given here)",121.4%,
"SMYD2 706-728: siRNA to human SMYD2; sense GGUUUUUACCAGCUAUAUUGA (SEQ 70), antisense AAUAUAGCUGGUAAAAACCUC (SEQ 127) (listed as RNA, chemistry not given here)",53.2%,
"SMYD2 736: siRNA to human SMYD2; sense CCCAACGGAAGAUAGAAAUUU (SEQ 61), antisense AUUUCUAUCUUCCGUUGGGUU (SEQ 118) (listed as RNA, chemistry not given here)",115.1%,
"SMYD2 750-772: siRNA to human SMYD2; sense GAAAUGACCGGUUAAGAGAUU (SEQ 78), antisense UCUCUUAACCGGUCAUUUCUA (SEQ 135) (listed as RNA, chemistry not given here)",26.5%,
"SMYD2 757: siRNA to human SMYD2; sense CCGGUUAAGAGAUUCUUAUUU (SEQ 59), antisense AUAAGAAUCUCUUAACCGGUU (SEQ 116) (listed as RNA, chemistry not given here)",82.3%,
"SMYD2 758-780: siRNA to human SMYD2; sense CGGUUAAGAGAUUCUUAUUUC (SEQ 75), antisense AAUAAGAAUCUCUUAACCGGU (SEQ 132) (listed as RNA, chemistry not given here)",38.8%,
"SMYD2 759-781: siRNA to human SMYD2; sense GGUUAAGAGAUUCUUAUUUCU (SEQ 71), antisense AAAUAAGAAUCUCUUAACCGG (SEQ 128) (listed as RNA, chemistry not given here)",37.7%,
"SMYD2 767-789: siRNA to human SMYD2; sense GAUUCUUAUUUCUUUACCUGU (SEQ 76), antisense AGGUAAAGAAAUAAGAAUCUC (SEQ 133) (listed as RNA, chemistry not given here)",46.4%,
"SMYD2 894: siRNA to human SMYD2; sense CACGCAACGUCAUUGAAGAUU (SEQ 68), antisense UCUUCAAUGACGUUGCGUGUU (SEQ 125) (listed as RNA, chemistry not given here)",18.3%,
"SMYD2 1077: siRNA to human SMYD2; sense CCCUGCAAUAUGGACAGAAUU (SEQ 65), antisense UUCUGUCCAUAUUGCAGGGUU (SEQ 122) (listed as RNA, chemistry not given here)",72.7%,
"SMYD2 1078: siRNA to human SMYD2; sense CCUGCAAUAUGGACAGAAAUU (SEQ 62), antisense UUUCUGUCCAUAUUGCAGGUU (SEQ 119) (listed as RNA, chemistry not given here)",107.5%,
"SMYD2 1082-1104: siRNA to human SMYD2; sense CAAUAUGGACAGAAAAUCAUU (SEQ 74), antisense UGAUUUUCUGUCCAUAUUGCA (SEQ 131)",35.2%,
"SMYD2 1249: siRNA to human SMYD2; sense CGGCAAAGAUCAUCCAUAUUU (SEQ 60), antisense AUAUGGAUGAUCUUUGCCGUU (SEQ 117) (listed as RNA, chemistry not given here)",110.9%,
"SMYD2 1251-1273: siRNA to human SMYD2; sense GCAAAGAUCAUCCAUAUAUUU (SEQ 77), antisense AUAUAUGGAUGAUCUUUGCCG (SEQ 134) (listed as RNA, chemistry not given here)",30.0%,
"SMYD2 1252-1274: siRNA to human SMYD2; sense CAAAGAUCAUCCAUAUAUUUC (SEQ 69), antisense AAUAUAUGGAUGAUCUUUGCC (SEQ 126) (listed as RNA, chemistry not given here)",13.1%,
"SMYD2 1276-1298: siRNA to human SMYD2; sense GAUCAAACAGGAAAUUGAAAG (SEQ 72), antisense UUCAAUUUCCUGUUUGAUCUC (SEQ 129) (listed as RNA, chemistry not given here)",26.6%,
"SMYDS 588: siRNA to human SMYD2; sense CAGCGAUAUUUCCUGAUGUUU (SEQ 67), antisense ACAUCAGGAAAUAUCGCUGUU (SEQ 124) (listed as RNA, chemistry not given here)",26.3%,
